Measured values from ChEMBL document CHEMBL4020788, “Synthesis, SAR and molecular docking studies of benzo[d]thiazole-hydrazones as potential antibacterial and antifungal agents” (2017).
Activity calls are given as the source filed them. No cut-off for these calls is given here.

Assays:
Format in all cases: functional
Fusarium oxysporum [1] = assay: Antifungal activity against Fusarium oxysporum at 75 ug/ml after 48 hrs by agar well diffusion method; settings: for zone of inhibition at 75 µg/mL: read-out: DIZ
Staphylococcus aureus [2] = assay: Antibacterial activity against Staphylococcus aureus at 50 ug/ml after 24 hrs by agar well diffusion method; settings: for zone of inhibition at 50 µg/mL: read-out: DIZ
Aspergillus niger [3] = assay: Antifungal activity against Aspergillus niger at 25 ug/ml after 48 hrs by agar well diffusion method
Klebsiella pneumoniae [4] = assay: Antibacterial activity against Klebsiella pneumoniae at 100 ug/ml after 24 hrs by agar well diffusion method; settings: for zone of inhibition at 100 µg/mL: read-out: DIZ
Fusarium verticillioides [5] = assay: Antifungal activity against Fusarium moniliforme at 25 ug/ml after 48 hrs by agar well diffusion method; settings: for zone of inhibition at 25 µg/mL: read-out: DIZ
Fusarium oxysporum [6] = assay: Antifungal activity against Fusarium oxysporum at 25 ug/ml after 48 hrs by agar well diffusion method
Fusarium oxysporum [7] = assay: Antifungal activity against Fusarium oxysporum at 50 ug/ml after 48 hrs by agar well diffusion method; settings: for zone of inhibition at 50 µg/mL: read-out: DIZ
Aspergillus niger [8] = assay: Antifungal activity against Aspergillus niger at 50 ug/ml after 48 hrs by agar well diffusion method
Klebsiella pneumoniae [9] = assay: Antibacterial activity against Klebsiella pneumoniae at 50 ug/ml after 24 hrs by agar well diffusion method; settings: for zone of inhibition at 50 µg/mL: read-out: DIZ
Staphylococcus aureus [10] = assay: Antibacterial activity against methicillin resistant Staphylococcus aureus MRSA090 at 50 ug/ml after 24 hrs by agar well diffusion method; settings: for zone of inhibition at 50 µg/mL: MRSA090, 24 h, read-out: DIZ
Bacillus subtilis [11] = assay: Antibacterial activity against Bacillus subtilis at 100 ug/ml after 24 hrs by agar well diffusion method
Fusarium verticillioides [12] = assay: Antifungal activity against Fusarium moniliforme at 75 ug/ml after 48 hrs by agar well diffusion method; settings: for zone of inhibition at 75 µg/mL: read-out: DIZ
Staphylococcus aureus [13] = assay: Antibacterial activity against methicillin resistant Staphylococcus aureus MRSA090 at 25 ug/ml after 24 hrs by agar well diffusion method; settings: for zone of inhibition at 25 µg/mL: MRSA090, 24 h, read-out: DIZ
Fusarium verticillioides [14] = assay: Antifungal activity against Fusarium moniliforme at 50 ug/ml after 48 hrs by agar well diffusion method; settings: for zone of inhibition at 50 µg/mL: read-out: DIZ
Fusarium oxysporum [15] = assay: Antifungal activity against Fusarium oxysporum at 100 ug/ml after 48 hrs by agar well diffusion method; settings: for zone of inhibition at 100 µg/mL: read-out: DIZ
Staphylococcus aureus [16] = assay: Antibacterial activity against Staphylococcus aureus at 75 ug/ml after 24 hrs by agar well diffusion method; settings: for zone of inhibition at 75 µg/mL: read-out: DIZ
Bacillus subtilis [17] = assay: Antibacterial activity against Bacillus subtilis at 25 ug/ml after 24 hrs by agar well diffusion method
Bacillus subtilis [18] = assay: Antibacterial activity against Bacillus subtilis at 75 ug/ml after 24 hrs by agar well diffusion method
Staphylococcus aureus [19] = assay: Antibacterial activity against methicillin resistant Staphylococcus aureus MRSA090 at 75 ug/ml after 24 hrs by agar well diffusion method; settings: for zone of inhibition at 75 µg/mL: MRSA090, 24 h, read-out: DIZ
Staphylococcus aureus [20] = assay: Antibacterial activity against Staphylococcus aureus at 100 ug/ml after 24 hrs by agar well diffusion method; settings: for zone of inhibition at 100 µg/mL: read-out: DIZ
Escherichia coli [21] = assay: Antibacterial activity against Escherichia coli at 25 ug/ml after 24 hrs by agar well diffusion method
Escherichia coli [22] = assay: Antibacterial activity against Escherichia coli at 75 ug/ml after 24 hrs by agar well diffusion method
Staphylococcus aureus [23] = assay: Antibacterial activity against Staphylococcus aureus at 25 ug/ml after 24 hrs by agar well diffusion method; settings: for zone of inhibition at 25 µg/mL: read-out: DIZ
Fusarium verticillioides [24] = assay: Antifungal activity against Fusarium moniliforme at 100 ug/ml after 48 hrs by agar well diffusion method; settings: for zone of inhibition at 100 µg/mL: read-out: DIZ
Escherichia coli [25] = assay: Antibacterial activity against Escherichia coli at 50 ug/ml after 24 hrs by agar well diffusion method
Aspergillus niger [26] = assay: Antifungal activity against Aspergillus niger at 75 ug/ml after 48 hrs by agar well diffusion method
Klebsiella pneumoniae [27] = assay: Antibacterial activity against Klebsiella pneumoniae at 75 ug/ml after 24 hrs by agar well diffusion method; settings: for zone of inhibition at 75 µg/mL: read-out: DIZ
Aspergillus niger [28] = assay: Antifungal activity against Aspergillus niger at 100 ug/ml after 48 hrs by agar well diffusion method
Bacillus subtilis [29] = assay: Antibacterial activity against Bacillus subtilis at 50 ug/ml after 24 hrs by agar well diffusion method
Klebsiella pneumoniae [30] = assay: Antibacterial activity against Klebsiella pneumoniae at 25 ug/ml after 24 hrs by agar well diffusion method; settings: for zone of inhibition at 25 µg/mL: read-out: DIZ
Staphylococcus aureus [31] = assay: Antibacterial activity against methicillin resistant Staphylococcus aureus MRSA090 at 100 ug/ml after 24 hrs by agar well diffusion method; settings: for zone of inhibition at 100 µg/mL: MRSA090, 24 h, read-out: DIZ
Escherichia coli [32] = assay: Antibacterial activity against Escherichia coli at 100 ug/ml after 24 hrs by agar well diffusion method

SMILES: COc1cc(/C=N/Nc2nc3cccc(C)c3s2)ccc1OCc1ccccc1
- zone of inhibition at 75 µg/mL (Fusarium oxysporum [1]): 9 mm
- zone of inhibition at 50 µg/mL (Staphylococcus aureus [2]): 11 mm
- diameter of the inhibition zone (DIZ) (Aspergillus niger [3]): inactive
- zone of inhibition at 100 µg/mL (Klebsiella pneumoniae [4]): 17 mm
- zone of inhibition at 25 µg/mL (Fusarium verticillioides [5]): 4 mm
- diameter of the inhibition zone (DIZ) (Fusarium oxysporum [6]): inactive
- zone of inhibition at 50 µg/mL (Fusarium oxysporum [7]): 5 mm
- diameter of the inhibition zone (DIZ) (Aspergillus niger [8]): inactive
- zone of inhibition at 50 µg/mL (Klebsiella pneumoniae [9]): 12 mm
- zone of inhibition at 50 µg/mL (Staphylococcus aureus [10]): 10 mm
- diameter of the inhibition zone (DIZ) (Bacillus subtilis [11]): inactive
- zone of inhibition at 75 µg/mL (Fusarium verticillioides [12]): 15 mm
- zone of inhibition at 25 µg/mL (Staphylococcus aureus [13]): 5 mm
- zone of inhibition at 50 µg/mL (Fusarium verticillioides [14]): 9 mm
- zone of inhibition at 100 µg/mL (Fusarium oxysporum [15]): 14 mm
- zone of inhibition at 75 µg/mL (Staphylococcus aureus [16]): 14 mm
- diameter of the inhibition zone (DIZ) (Bacillus subtilis [17]): inactive
- diameter of the inhibition zone (DIZ) (Bacillus subtilis [18]): inactive
- zone of inhibition at 75 µg/mL (Staphylococcus aureus [19]): 12 mm
- zone of inhibition at 100 µg/mL (Staphylococcus aureus [20]): 18 mm
- diameter of the inhibition zone (DIZ) (Escherichia coli [21]): inactive
- diameter of the inhibition zone (DIZ) (Escherichia coli [22]): inactive
- zone of inhibition at 25 µg/mL (Staphylococcus aureus [23]): 7 mm
- zone of inhibition at 100 µg/mL (Fusarium verticillioides [24]): 20 mm
- diameter of the inhibition zone (DIZ) (Escherichia coli [25]): inactive
- diameter of the inhibition zone (DIZ) (Aspergillus niger [26]): inactive
- zone of inhibition at 75 µg/mL (Klebsiella pneumoniae [27]): 14 mm
- diameter of the inhibition zone (DIZ) (Aspergillus niger [28]): inactive
- diameter of the inhibition zone (DIZ) (Bacillus subtilis [29]): inactive
- zone of inhibition at 25 µg/mL (Klebsiella pneumoniae [30]): 7 mm
- zone of inhibition at 100 µg/mL (Staphylococcus aureus [31]): 14 mm
- diameter of the inhibition zone (DIZ) (Escherichia coli [32]): inactive

SMILES: CCCCCC/C=N/Nc1nc2cccc(C)c2s1
- diameter of the inhibition zone (DIZ) (Fusarium oxysporum [1]): inactive
- diameter of the inhibition zone (DIZ) (Staphylococcus aureus [2]): inactive
- diameter of the inhibition zone (DIZ) (Aspergillus niger [3]): inactive
- diameter of the inhibition zone (DIZ) (Klebsiella pneumoniae [4]): inactive
- diameter of the inhibition zone (DIZ) (Fusarium verticillioides [5]): inactive
- diameter of the inhibition zone (DIZ) (Fusarium oxysporum [6]): inactive
- diameter of the inhibition zone (DIZ) (Fusarium oxysporum [7]): inactive
- diameter of the inhibition zone (DIZ) (Aspergillus niger [8]): inactive
- diameter of the inhibition zone (DIZ) (Klebsiella pneumoniae [9]): inactive
- diameter of the inhibition zone (DIZ) (Staphylococcus aureus [10]): inactive
- diameter of the inhibition zone (DIZ) (Bacillus subtilis [11]): inactive
- diameter of the inhibition zone (DIZ) (Fusarium verticillioides [12]): inactive
- diameter of the inhibition zone (DIZ) (Staphylococcus aureus [13]): inactive
- diameter of the inhibition zone (DIZ) (Fusarium verticillioides [14]): inactive
- diameter of the inhibition zone (DIZ) (Fusarium oxysporum [15]): inactive
- diameter of the inhibition zone (DIZ) (Staphylococcus aureus [16]): inactive
- diameter of the inhibition zone (DIZ) (Bacillus subtilis [17]): inactive
- diameter of the inhibition zone (DIZ) (Bacillus subtilis [18]): inactive
- diameter of the inhibition zone (DIZ) (Staphylococcus aureus [19]): inactive
- diameter of the inhibition zone (DIZ) (Staphylococcus aureus [20]): inactive
- diameter of the inhibition zone (DIZ) (Escherichia coli [21]): inactive
- diameter of the inhibition zone (DIZ) (Escherichia coli [22]): inactive
- diameter of the inhibition zone (DIZ) (Staphylococcus aureus [23]): inactive
- diameter of the inhibition zone (DIZ) (Fusarium verticillioides [24]): inactive
- diameter of the inhibition zone (DIZ) (Escherichia coli [25]): inactive
- diameter of the inhibition zone (DIZ) (Aspergillus niger [26]): inactive
- diameter of the inhibition zone (DIZ) (Klebsiella pneumoniae [27]): inactive
- diameter of the inhibition zone (DIZ) (Aspergillus niger [28]): inactive
- diameter of the inhibition zone (DIZ) (Bacillus subtilis [29]): inactive
- diameter of the inhibition zone (DIZ) (Klebsiella pneumoniae [30]): inactive
- diameter of the inhibition zone (DIZ) (Staphylococcus aureus [31]): inactive
- diameter of the inhibition zone (DIZ) (Escherichia coli [32]): inactive

SMILES: COc1cc(/C=N/Nc2nc3cccc(C)c3s2)cc(Br)c1O
- zone of inhibition at 75 µg/mL (Fusarium oxysporum [1]): 17 mm
- zone of inhibition at 50 µg/mL (Staphylococcus aureus [2]): 10 mm
- zone of inhibition at 25 µg/mL (Aspergillus niger [3]; read-out: DIZ): 7 mm
- zone of inhibition at 100 µg/mL (Klebsiella pneumoniae [4]): 21 mm
- zone of inhibition at 25 µg/mL (Fusarium verticillioides [5]): 9 mm
- zone of inhibition at 25 µg/mL (Fusarium oxysporum [6]; read-out: DIZ): 8 mm
- zone of inhibition at 50 µg/mL (Fusarium oxysporum [7]): 14 mm
- zone of inhibition at 50 µg/mL (Aspergillus niger [8]; read-out: DIZ): 11 mm
- zone of inhibition at 50 µg/mL (Klebsiella pneumoniae [9]): 14 mm
- zone of inhibition at 50 µg/mL (Staphylococcus aureus [10]): 13 mm
- zone of inhibition at 100 µg/mL (Bacillus subtilis [11]; read-out: DIZ): 17 mm
- zone of inhibition at 75 µg/mL (Fusarium verticillioides [12]): 17 mm
- zone of inhibition at 25 µg/mL (Staphylococcus aureus [13]): 7 mm
- zone of inhibition at 50 µg/mL (Fusarium verticillioides [14]): 13 mm
- zone of inhibition at 100 µg/mL (Fusarium oxysporum [15]): 20 mm
- zone of inhibition at 75 µg/mL (Staphylococcus aureus [16]): 13 mm
- zone of inhibition at 25 µg/mL (Bacillus subtilis [17]; read-out: DIZ): 5 mm
- zone of inhibition at 75 µg/mL (Bacillus subtilis [18]; read-out: DIZ): 13 mm
- zone of inhibition at 75 µg/mL (Staphylococcus aureus [19]): 19 mm
- zone of inhibition at 100 µg/mL (Staphylococcus aureus [20]): 16 mm
- zone of inhibition at 25 µg/mL (Escherichia coli [21]; read-out: DIZ): 11 mm
- zone of inhibition at 75 µg/mL (Escherichia coli [22]; read-out: DIZ): 19 mm
- zone of inhibition at 25 µg/mL (Staphylococcus aureus [23]): 8 mm
- zone of inhibition at 100 µg/mL (Fusarium verticillioides [24]): 20 mm
- zone of inhibition at 50 µg/mL (Escherichia coli [25]; read-out: DIZ): 15 mm
- zone of inhibition at 75 µg/mL (Aspergillus niger [26]; read-out: DIZ): 16 mm
- zone of inhibition at 75 µg/mL (Klebsiella pneumoniae [27]): 17 mm
- zone of inhibition at 100 µg/mL (Aspergillus niger [28]; read-out: DIZ): 18 mm
- zone of inhibition at 50 µg/mL (Bacillus subtilis [29]; read-out: DIZ): 9 mm
- zone of inhibition at 25 µg/mL (Klebsiella pneumoniae [30]): 9 mm
- zone of inhibition at 100 µg/mL (Staphylococcus aureus [31]): 20 mm
- zone of inhibition at 100 µg/mL (Escherichia coli [32]; read-out: DIZ): 21 mm
